The results in this text go back to ChEMBL document CHEMBL1201862, “PubChem BioAssay data set” (2004).

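Compound exposure: 48 hours, 5 concentrations, 96-well plates. At the GI50, growth is halved.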 Calls of active or inactive are those of the source. Rule as the data show it: active = GI50 up to about 1.1 µM and inactive = higher.

Holding throughout (assay): NCI tumour cell line growth inhibition, 48 h
The subject of assay [1] is UACC-257.
The test system of assay [2] is OVCAR-5.
Assay [3] relates to MDA-MB-435.
Assay [4] relates to NCI-H460.
Assay [5] has as its system MDA-N.
The subject of assay [6] is COLO 205.
Assay [7] relates to SK-MEL-2.
For assay [8], the system named is NCI/ADR-RES.
The test system of assay [9] is ACHN.
Assay [10] deals with HCT-116.
In assay [11] the test system is RXF 393.
The test system of assay [12] is NCI-H226.
Assay [13] concerns SW-620.
Assay [14] deals with EKVX.
The test system of assay [15] is HCC 2998.
Assay [16] relates to SK-MEL-28.
Assay [17] concerns OVCAR-8.
Assay [18] relates to HL-60.
For assay [19], the system named is SK-OV-3.

Consider `COC(=O)[C@@H](Cc1ccccc1)N1O[C@]12CCCC[C@@H]2NC(=O)OC(C)(C)C` (stereo not given in full), for which the GI50 was 36.4 µM (inactive) in [1]; 25.1 µM (inactive) in assay [2]; 25.8 µM (inactive) in [3]; 25.5 µM (inactive) in assay [4]; 20.4 µM (inactive) in [5]; 26.7 µM (inactive) in assay [6]. Moreover, the GI50 in [7] is 20.4 µM (inactive); in [8], 23.1 µM (inactive); in [9], 18.5 µM (inactive); in assay [10], 38.7 µM (inactive); in [11], 25 µM (inactive); in [12], 47.3 µM (inactive). In addition, the GI50 was 15.8 µM (inactive) in assay [13], 27.9 µM (inactive) in assay [14], 59.6 µM (inactive) in [15] and 22.1 µM (inactive) in assay [16].
Consider `Cc1ccc2c(c1)C/C(=C\c1ccccc1C(=O)O)C2=O`, for which the GI50 in [17], in [1], in [2], in assay [3], in assay [4] and in assay [5] was > 100 µM (inactive) throughout. Moreover, the GI50 in [6] is 35.6 µM (inactive); in [7], > 100 µM (inactive); in [8], > 100 µM (inactive); in [9] it was > 100 µM (inactive); in [10], > 100 µM (inactive); in assay [11], > 100 µM (inactive). Also, the GI50 in assay [12] was 37 µM (inactive); in assay [18], > 100 µM (inactive); in assay [13] it was > 100 µM (inactive); in assay [14] it was > 100 µM (inactive); in assay [15] it was > 100 µM (inactive); in [16], > 100 µM (inactive).
For the compound `CCCC(=O)NC(C(=O)OCC)(N1CCOCC1)C(F)(F)F` (stereo not given), the GI50 in assay [17], in [1], in assay [2], in assay [3], in assay [5] and in assay [6] was > 100 µM (inactive) each time. Further, the GI50 in [7], in [8], in [9], in assay [10], in assay [11] and in assay [19] was > 100 µM (inactive) in each case. Besides, the GI50 in assay [12], in assay [18], in assay [13], in [14], in assay [15] and in assay [16] was > 100 µM (inactive) in each case.
Consider `FC(F)(F)c1ccccc1C1SCC2=Nc3ccccc3CN21` (stereo not given), for which the GI50 in assay [17] is 16.9 µM (inactive); in [1] it was 15.9 µM (inactive); in assay [2], 12 µM (inactive); in assay [3], 22.5 µM (inactive); in assay [4], 15.7 µM (inactive); in assay [5], 29.5 µM (inactive). The GI50 in assay [6] was 12.5 µM (inactive); in [8] it was 18.3 µM (inactive); in [10], 11.1 µM (inactive); in [11] it was 10.2 µM (inactive); in [19], 18.6 µM (inactive); in assay [12], 12.6 µM (inactive). Besides, the GI50 in assay [18] was 21.3 µM (inactive); in assay [13] it was 32.4 µM (inactive); in assay [14] it was 12 µM (inactive); in assay [15], 14.5 µM (inactive); in assay [16], 19.3 µM (inactive).
As to `CCOP(=O)(OCC)C(N)Cc1ccc(OC)c(OC)c1` (stereo not given), the GI50 in [17], in assay [1], in assay [2], in assay [3], in [4] and in assay [5] was > 100 µM (inactive) each time. Also, the GI50 in assay [6], in assay [7], in [8], in assay [9], in assay [10] and in assay [11] was > 100 µM (inactive) in each case. The GI50 in [12], in assay [18], in [13], in assay [15] and in [16] was > 100 µM (inactive) each time.
On to `CCOC(=O)c1sc2nc1CSc1sc(=S)sc1SCc1nc(sc1C(=O)OCC)-c1nc(c(C(=O)OCC)s1)CSc1sc(=S)sc1SCc1nc-2sc1C(=O)OCC`, for which the GI50 in assay [17], in assay [1], in [2], in [3], in assay [4] and in assay [5] was > 10 µM (inactive) in each case. Further, the GI50 in assay [6], in assay [7], in assay [8], in assay [9], in assay [10] and in [11] was > 10 µM (inactive) throughout. Also, the GI50 in assay [19], in assay [18], in assay [13], in [14], in [15] and in [16] was > 10 µM (inactive) throughout.
Take `COc1ccc(-c2cc(-c3ccccc3)n(C3OC(COC(C)=O)C(OC(C)=O)C(OC(C)=O)C3OC(C)=O)c(=S)c2C#N)cc1` (stereo not given): the GI50 was 3.58 µM (inactive) in [17]; 15.7 µM (inactive) in [2]; 6.89 µM (inactive) in assay [3]; 7.48 µM (inactive) in assay [4]; 8.05 µM (inactive) in assay [5]; 11.3 µM (inactive) in assay [6]. The GI50 in [8] is 11 µM (inactive); in assay [9], 15.2 µM (inactive); in assay [10] it was 6.07 µM (inactive); in assay [11], 11.2 µM (inactive); in [19], 18.8 µM (inactive); in assay [12], 5.87 µM (inactive). For the same compound, the GI50 in [18] was 2.61 µM (inactive); in assay [13], 13.9 µM (inactive); in assay [14], 14.9 µM (inactive); in [15] it was 22.3 µM (inactive); in assay [16], 12.6 µM (inactive).
Consider `CC(C)C(=O)Oc1cc2c(=O)oc3c(OC(=O)C(C)C)c(OC(=O)C(C)C)cc4c(=O)oc(c1OC(=O)C(C)C)c2c34`, for which the GI50 in assay [17], in assay [1], in assay [2], in assay [3], in assay [4] and in assay [5] was > 100 µM (inactive) throughout. Also, the GI50 in [6], in assay [8], in assay [9], in [10], in [11] and in assay [19] was > 100 µM (inactive) each time. The GI50 in assay [12], in [13], in assay [14], in [15] and in assay [16] was > 100 µM (inactive) in each case.
As to `c1ccc(C(=NNc2nc3ccccc3o2)c2ccccn2)nc1`, the GI50 in assay [17] is 0.0301 µM (active); in [1], 0.0494 µM (active); in assay [2], < 0.0175 µM (active); in assay [3], 0.232 µM (active); in assay [5] it was 0.191 µM (active); in assay [6] it was < 0.01 µM (active). Further, the GI50 in [7] is 0.0883 µM (active); in assay [8] it was 0.0245 µM (active); in [9], 0.0198 µM (active); in assay [10] it was < 0.0117 µM (active); in assay [11], 0.158 µM (active); in assay [19], 0.0292 µM (active). In addition, the GI50 was < 0.01 µM (active) in assay [12]; 0.0439 µM (active) in assay [18]; 0.024 µM (active) in [13]; < 0.0162 µM (active) in assay [14]; 0.0391 µM (active) in [15].
Consider `CNC(=O)Nc1ccccc1`, for which the GI50 in assay [17], in assay [1], in [2], in [3], in assay [4] and in assay [5] was > 100 µM (inactive) throughout. Moreover, the GI50 in assay [6], in assay [7], in assay [8], in assay [9], in assay [10] and in assay [11] was > 100 µM (inactive) each time. The GI50 in assay [12], in [18], in assay [13], in [14], in assay [15] and in assay [16] was > 100 µM (inactive) in each case.
For the compound `COc1cc2cc(C(=O)N3CC(CCl)c4ccc(O)cc43)[nH]c2c(OC)c1OC` (stereo not given), the GI50 in assay [17] is 0.00132 µM (active); in [1] it was 0.0149 µM (active); in assay [2], 0.129 µM (active); in assay [3], 0.00263 µM (active); in assay [5] it was < 0.01 µM (active); in [6], 0.0227 µM (active). Besides, the GI50 is 0.00169 µM (active) in [7]; 0.00162 µM (active) in [8]; < 0.0001 µM (active) in assay [9]; < 0.0001 µM (active) in assay [10]; < 0.0001 µM (active) in assay [11]; 0.0168 µM (active) in assay [12]. Also, the GI50 in [18] was 0.00647 µM (active); in [13], 0.00233 µM (active); in assay [14], 0.0513 µM (active); in assay [15] it was 0.000593 µM (active); in [16], 0.00196 µM (active).
